Experiment: Physicochemical properties of the crystalline complex

SMILES: N#Cc1ccc([C@@H]2O[C@H](CO)[C@@H](O)[C@H](O)[C@H]2O)cc1Cc1ccc(C2CC2)cc1.O=C(O)[C@@H]1CCCN1 [crystalline complex]
- tendency to absorb moisture: does not show a high tendency to absorb moisture
- physical and chemical stability (various environmental conditions and during production of a medicament): high physical and chemical stability

From patent publication US11896574B2, “Treatment of metabolic disorders in feline animals” (Boehringer Ingelheim Vetmedica GmbH, priority 2013, dated 2024)
